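Tested at 5 concentrations; 48 h exposure; 96-well plates; endpoints linearly interpolated, else capped at highest concentration. The concentration for 50% growth inhibition is given as GI50. At the TGI there is no net growth.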
Legend:
Assay in all cases: inhibition of tumour cell growth, NCI panel, 48 h
786-0 renal = tested on: 786-0 renal
A498 renal = tested on: A498 renal
A549 NSCLC = tested on: A549 NSCLC
ACHN renal = tested on: ACHN renal
BT-549 breast = tested on: BT-549 breast
CAKI-1 renal = tested on: CAKI-1 renal
CCRF-CEM leukemia = tested on: CCRF-CEM leukemia
COLO 205 colon = tested on: COLO 205 colon
DU-145 prostate = tested on: DU-145 prostate
EKVX NSCLC = tested on: EKVX NSCLC
HCC-2998 colon = tested on: HCC-2998 colon
HCT-116 colon = tested on: HCT-116 colon
HCT-15 colon = tested on: HCT-15 colon
HL-60(TB) leukemia = tested on: HL-60(TB) leukemia
HOP-62 NSCLC = tested on: HOP-62 NSCLC
HOP-92 NSCLC = tested on: HOP-92 NSCLC
HS 578T breast = tested on: HS 578T breast
HT29 colon = tested on: HT29 colon
IGROV1 ovarian = tested on: IGROV1 ovarian
K-562 leukemia = tested on: K-562 leukemia
KM12 colon = tested on: KM12 colon
LOX IMVI melanoma = tested on: LOX IMVI melanoma
M14 melanoma = tested on: M14 melanoma
MALME-3M melanoma = tested on: MALME-3M melanoma
MCF7 breast = tested on: MCF7 breast
MDA-MB-231 breast = tested on: MDA-MB-231 breast
MDA-MB-435 = tested on: MDA-MB-435
MOLT-4 leukemia = tested on: MOLT-4 leukemia
NCI-H226 lung = tested on: NCI-H226 lung
NCI-H23 lung = tested on: NCI-H23 lung
NCI-H460 lung = tested on: NCI-H460 lung
NCI-H522 lung = tested on: NCI-H522 lung
NCI/ADR-RES ovarian = tested on: NCI/ADR-RES ovarian
OVCAR-4 ovarian = tested on: OVCAR-4 ovarian
OVCAR-5 ovarian = tested on: OVCAR-5 ovarian
OVCAR-8 ovarian = tested on: OVCAR-8 ovarian
PC-3 prostate = tested on: PC-3 prostate
RPMI-8226 leukemia = tested on: RPMI-8226 leukemia
RXF 393 renal = tested on: RXF 393 renal
SF-268 CNS = tested on: SF-268 CNS
SF-295 CNS = tested on: SF-295 CNS
SF-539 CNS = tested on: SF-539 CNS
SK-MEL-28 melanoma = tested on: SK-MEL-28 melanoma
SK-MEL-5 melanoma = tested on: SK-MEL-5 melanoma
SK-OV-3 ovarian = tested on: SK-OV-3 ovarian
SN12C renal = tested on: SN12C renal
SNB-19 CNS = tested on: SNB-19 CNS
SNB-75 CNS = tested on: SNB-75 CNS
SR leukemia = tested on: SR leukemia
SW-620 colon = tested on: SW-620 colon
T-47D breast = tested on: T-47D breast
TK-10 renal = tested on: TK-10 renal
U251 CNS = tested on: U251 CNS
UACC-257 melanoma = tested on: UACC-257 melanoma
UACC-62 melanoma = tested on: UACC-62 melanoma
UO-31 renal = tested on: UO-31 renal

`CCN(CC)CCN1C(=O)c2c(c3c4cc(Br)ccc4[nH]c3c3ccc4ccccc4c23)C1=O` gave a GI50 (786-0 renal) of 1710 nM, a TGI (786-0 renal) of 3110 nM and a GI50 (A498 renal) of 1640 nM. For the same molecule, the TGI (A498 renal) was 3290 nM, the GI50 (A549 NSCLC) was 1430 nM and the TGI (A549 NSCLC) was 2790 nM. It also gave a GI50 (ACHN renal) of 1140 nM, a TGI (ACHN renal) of 2360 nM and a GI50 (BT-549 breast) of 2220 nM. For the same molecule, the TGI (BT-549 breast) was 4070 nM, the GI50 (CAKI-1 renal) was 1250 nM and the TGI (CAKI-1 renal) was 2630 nM. For the same molecule, the GI50 (CCRF-CEM leukemia) was 186 nM, the TGI (CCRF-CEM leukemia) was 1750 nM and the GI50 (COLO 205 colon) was 1430 nM. For the same molecule, the TGI (COLO 205 colon) was 3130 nM, the GI50 (DU-145 prostate) was 1220 nM and the TGI (DU-145 prostate) was 2560 nM. For the same molecule, the GI50 (EKVX NSCLC) was 1380 nM, the TGI (EKVX NSCLC) was 2920 nM and the GI50 (HCC-2998 colon) was 1660 nM. The TGI (HCC-2998 colon) was 3430 nM, the GI50 (HCT-116 colon) was 1250 nM and the TGI (HCT-116 colon) was 2500 nM. It also gave a GI50 (HCT-15 colon) of 1400 nM, a TGI (HCT-15 colon) of 3080 nM and a GI50 (HL-60(TB) leukemia) of 1580 nM. It also gave a TGI (HL-60(TB) leukemia) of 3980 nM, a GI50 (HOP-62 NSCLC) of 922 nM and a TGI (HOP-62 NSCLC) of 2250 nM. For the same molecule, the GI50 (HOP-92 NSCLC) was 1320 nM, the TGI (HOP-92 NSCLC) was 2710 nM and the GI50 (HS 578T breast) was 1940 nM. The TGI (HS 578T breast) was 5020 nM, the GI50 (HT29 colon) was 1350 nM and the TGI (HT29 colon) was 2800 nM. The GI50 (IGROV1 ovarian) was 1270 nM, the TGI (IGROV1 ovarian) was 2820 nM and the GI50 (K-562 leukemia) was 273 nM. It also gave a TGI (K-562 leukemia) of 905 nM, a GI50 (KM12 colon) of 1710 nM and a TGI (KM12 colon) of 3500 nM. For the same molecule, the GI50 (LOX IMVI melanoma) was 1250 nM, the TGI (LOX IMVI melanoma) was 3040 nM and the GI50 (M14 melanoma) was 1570 nM. For the same molecule, the TGI (M14 melanoma) was 2960 nM, the GI50 (MALME-3M melanoma) was 1560 nM and the TGI (MALME-3M melanoma) was 3060 nM. The GI50 (MCF7 breast) was 43.9 nM, the TGI (MCF7 breast) was 1640 nM and the GI50 (MDA-MB-231 breast) was 1410 nM. It also gave a TGI (MDA-MB-231 breast) of 3000 nM, a GI50 (MDA-MB-435) of 1630 nM and a TGI (MDA-MB-435) of 3080 nM. It also gave a GI50 (MOLT-4 leukemia) of 215 nM, a TGI (MOLT-4 leukemia) of 1920 nM and a GI50 (NCI-H226 lung) of 5640 nM. For the same molecule, the TGI (NCI-H226 lung) was 33700 nM, the GI50 (NCI-H23 lung) was 1500 nM and the TGI (NCI-H23 lung) was 3320 nM. The GI50 (NCI-H460 lung) was 476 nM, the TGI (NCI-H460 lung) was 1850 nM and the GI50 (NCI-H522 lung) was 1290 nM. For the same molecule, the TGI (NCI-H522 lung) was 2670 nM, the GI50 (NCI/ADR-RES ovarian) was 1430 nM and the TGI (NCI/ADR-RES ovarian) was 4190 nM. For the same molecule, the GI50 (OVCAR-4 ovarian) was 1680 nM, the TGI (OVCAR-4 ovarian) was 3220 nM and the GI50 (OVCAR-5 ovarian) was 1760 nM. For the same molecule, the TGI (OVCAR-5 ovarian) was 3230 nM, the GI50 (OVCAR-8 ovarian) was 1270 nM and the TGI (OVCAR-8 ovarian) was 2660 nM. The GI50 (PC-3 prostate) was 1310 nM, the TGI (PC-3 prostate) was 2650 nM and the GI50 (RPMI-8226 leukemia) was 1210 nM. For the same molecule, the TGI (RPMI-8226 leukemia) was 3230 nM, the GI50 (RXF 393 renal) was 1580 nM and the TGI (RXF 393 renal) was 3000 nM. For the same molecule, the GI50 (SF-268 CNS) was 1520 nM, the TGI (SF-268 CNS) was 3530 nM and the GI50 (SF-295 CNS) was 1610 nM. The TGI (SF-295 CNS) was 3090 nM, the GI50 (SF-539 CNS) was 1560 nM and the TGI (SF-539 CNS) was 3000 nM. For the same molecule, the GI50 (SK-MEL-28 melanoma) was 1730 nM, the TGI (SK-MEL-28 melanoma) was 3190 nM and the GI50 (SK-MEL-5 melanoma) was 1750 nM. For the same molecule, the TGI (SK-MEL-5 melanoma) was 3180 nM, the GI50 (SK-OV-3 ovarian) was 1500 nM and the TGI (SK-OV-3 ovarian) was 2900 nM. It also gave a GI50 (SN12C renal) of 1580 nM, a TGI (SN12C renal) of 3140 nM and a GI50 (SNB-19 CNS) of 1430 nM. The TGI (SNB-19 CNS) was 2840 nM, the GI50 (SNB-75 CNS) was 1450 nM and the TGI (SNB-75 CNS) was 2840 nM. The GI50 (SR leukemia) was 102 nM, the TGI (SR leukemia) was 520 nM and the GI50 (SW-620 colon) was 553 nM. For the same molecule, the TGI (SW-620 colon) was 2160 nM, the GI50 (T-47D breast) was 700 nM and the TGI (T-47D breast) was 2560 nM. The GI50 (TK-10 renal) was 2110 nM, the TGI (TK-10 renal) was 3560 nM and the GI50 (U251 CNS) was 1020 nM. It also gave a TGI (U251 CNS) of 2210 nM, a GI50 (UACC-257 melanoma) of 1640 nM and a TGI (UACC-257 melanoma) of 3010 nM. It also gave a GI50 (UACC-62 melanoma) of 1640 nM, a TGI (UACC-62 melanoma) of 3500 nM and a GI50 (UO-31 renal) of 1320 nM. The TGI (UO-31 renal) was 2620 nM.
